# Measured values as given in PMC5355322, “Enhancement of the bioavailability of a novel anticancer compound (acetyltanshinone IIA) by encapsulation within mPEG-PLGA nanoparticles: a study of formulation optimization, toxicity, and pharmacokinetics” (Oncotarget, 2017).
# Where two headings read alike, the source gives them in different places.
# Experiments:
# Drug release by dialysis = format: physicochemical; conditions: after 22 h, water with 1% SDS, 37°C
# Method: The release of ATA from ATA NPs was investigated using dialysis and compared with the release of free ATA in solution [38–41]. Free ATA, or ATA NPs containing an equal amount of ATA, was mixed with release medium (6 mL ultra-pure water with 1% SDS) and placed in a dialysis sack (MWCO 12,000, Sigma). The pocket was then immersed in release medium (50 mL) with gentle stirring at 37°C. Samples of medium from outside of the pocket (2 mL) were taken at the designated time intervals for analysis, and an equal volume of fresh release medium was replenished. The amount of released drug was determined by the RP-HPLC method described in the section “Pharmacokinetics of ATA NPs in rats” below. The similarity of release profiles between the free ATA and ATA NPs were evaluated by the similarity factor (f2) shown below: f2=50log {[1+1/n∑t=1n(Rt−Tt)^2]^−0.5×100}
# where n is the number of the time points, Rt is the release value of ATA NPs at time t, and Tt is the release value of free ATA.
# [1] = tested on: human umbilical vein endothelial cells (HUVEC); test: MTT cell viability assay, HUVEC; format: cell-based; conditions: for IC50: Homo sapiens, HUVEC
# Method: (§1) Meanwhile, human umbilical vein endothelial cells (HUVEC) were used to determine the general toxicity of ATA NPs on non-cancerous cells. Cells were treated with free ATA or ATA NPs at six concentrations: 0.625, 1.25, 2.5, 5, 10, and 20 μM for 24, 48, and 72 h. Cell viability was determined by the MTT assay and the experiment was conducted in triplicate.
# (§2) The MTT reduction ability was determined as an index of the metabolic viability, in particular mitochondrial function, of the cells. Briefly, MCF-7 cells or HUVEC were seeded in 96-well plates and allowed to grow overnight. Free ATA (dissolved in DMSO, diluted with DMEM), ATA NPs, or blank NPs were added at different concentrations and the cells were incubated for 24, 48, and 72 h. MTT solution (10 μL; 5 mg/mL) was added into each well for 4 h. One hundred microliters of 1% SDS (containing 0.1% concentrated hydrochloric acid) was then added in each well to dissolve the formazan crystals. After 8 h, the absorbance of solubilized MTT formazan products were measured at 595 nm, and the cell viability was calculated from the OD value of the test sample and the vehicle control (untreated cells) using the following equation: cell viability (%) = ODtest sample /ODvehicle control × 100. The data obtained in triplicate from three independent experiments were presented as the mean ± SD.
# ER [2] = conditions: ref [23]; cited from earlier work
# [3] = tested on: MCF-7 breast cancer cells; test: MTT cell viability assay, MCF-7; format: cell-based; conditions: for reduction of viability of MCF-7 cells: 10 μM and 20 μM; for IC50: Homo sapiens, MCF7
# Method: as §1, §2
# GREB1 = conditions: ref [23]; cited from earlier work
# zebrafish larvae = test: Heart rate of zebrafish larvae; format: in vivo; conditions: 5 μM, 96 hpf; normal fish larvae 160 bpm
# Method: (§3) Various concentrations of the free and nanoparticle forms of ATA were added to zebrafish embryos at four hours post fertilization (hpf).
# The temperature of incubator was maintained at 28.5°C to ensure the optimal development of the embryos. Throughout the experiment, incubation solutions with freshly added ATA were replaced daily. Images of the zebrafish were captured in order to document any morphological changes. The heart rate was also recorded as described previously [44–47]. Twenty zebrafish were used in each experimental group and the zebrafish experiments were conducted at least four times.
# ER [4] = conditions: ref [23]; cited from earlier work; remark: listed apart in the source
# [5] = design: method as in our previous study in rats; conditions: rats; ref our previous study in rats; cited from earlier work
# [6] = Pharmacokinetics in rats after single intravenous administration (RP-HPLC); format: in vivo, rat; conditions: for half-life: rat, whole blood, 8 mg/kg
# Method: The pharmacokinetic parameters of ATA were determined using two-chamber model and calculated using Excel PKsolver. According to the requirements for the selection of pharmacokinetic calculation model, the values of Akaike's information criterion and residual sum of squares (Re) were minimized, while the value of the determinate coefficient (r) was maximized. The mean retention time was calculated by statistical moment analysis.
# Free ATA was suspended in a solution of PEG300: Ethanol: Tween 80 (60:25:15, v:v:v). […] At different time points (15 min, 30 min, 1, 2, 3, 4, 5, 6, 8, and 24 h), blood samples (0.3 mL) were collected from the suborbital vein and put into heparinized tubes. The blood samples were centrifuged at 3,000 rpm at 4°C for 10 min to obtain plasma. Then, the samples were pretreated and injected into RP-HPLC for detection. Microsoft Excel PKSolver was used to analyze the pharmacokinetic data. All animal studies were done in accordance with the protocol of ARF SBS NIE A-0146 AZ approved by the Institutional Animal Care and Use Committee, Nanyang Technological University, Singapore.
# Before the samples were injected into the chromatograph, they were subjected to protein denaturation and precipitation. Briefly, acetonitrile (700 μL) was added to each 300 μL sample to precipitate the proteins and extract ATA. Samples were vortex mixed for 15 min and then centrifuged for 10 min at 14,000 rpm at 4°C. The deproteinized supernatant was recovered and analyzed immediately by RP-HPLC.
# The concentration of ATA in plasma or whole blood was measured by RP-HPLC analysis as described above. The standard stock solution of ATA was added into the plasma or blood at different concentrations and subjected to sample pretreatment. The calibration graphs were based on linear regression analysis of the peak-area of ATA versus the concentration of ATA [32–36]. The extraction recoveries of ATA from rat plasma were determined at the concentrations of 0.0005, 0.01, and 50 μg/mL and from rat blood at the concentrations of 0.1, 5, and 100 μg/mL, using five replicates. The precision and accuracy of the method were examined at three concentrations of samples. The intra-day precisions were evaluated by analyzing five replicate samples in one day. The analysis was performed on five consecutive days for the inter-day precision.
# ER+ breast cancer cells = conditions: compared with tamoxifen; ref [23]; cited from earlier work
# [7] = rat whole blood, single i.v. 8 mg/kg
# [8] = rat whole blood, single i.v. 8 mg/kg, two-chamber model
# Method for zebrafish embryos: as §3
# Male and female zebrafish were bred in separate tanks. […] After mating, the selected embryos were collected at 4 hpf and placed in 96-well plates. […] In brief, these embryos were placed in glass petri dishes containing of fresh water (25 mL) with pronase (50 μL; 50 mg/mL) for 4-5 min.
# Throughout the experiment, incubation solutions with freshly added ATA were replaced daily. Images of the zebrafish were captured in order to document any morphological changes. […] Twenty zebrafish were used in each experimental group and the zebrafish experiments were conducted at least four times.
smiles,measurement,setting,value
"CC(=O)Oc1c(OC(C)=O)c2c(C)coc2c2ccc3c(c12)CCCC3(C)C [Free ATA, acetyltanshinone IIA]",ATA released,Drug release by dialysis,50%
same,24 h-IC50 in HUVEC cells relative to MCF-7 cells,"[1]; 24 h, HUVEC vs MCF-7",7.4 fold
same,IC50,[1]; 24 h,19300 nM
same,IC50,[1]; 48 h,6670 nM
same,IC50,[1]; 72 h,2050 nM
same,effect on ER protein,ER [2],completely abolished the presence of ER
same,reduction of viability of MCF-7 cells,[3]; 48 and 72 h,~100%
same,reduction of viability of MCF-7 cells,[3]; 24 h,approximately 90%
same,IC50,"[3]; MCF-7, 24 h",2620 nM
same,IC50,"[3]; MCF-7, 48 h",1720 nM
same,IC50,"[3]; MCF-7, 72 h",1060 nM
same,transcription of ER-responsive gene GREB1,GREB1,reduced the transcription
same,heartbeats,zebrafish larvae,120 bpm
same,expression of ER at the mRNA level,ER [4],reduced the expression of ER at the mRNA level
same,bioavailability,[5],low bioavailability
same,MRT,"[6]; female, SD, iv, rat whole blood, single i.v. 8 mg/kg, statistical moment analysis, read-out: MRT (mean retention time) (converted)",15.9 min
same,AUC(0-inf),"[6]; female, SD, iv, rat whole blood, single i.v. 8 mg/kg, two-chamber model",0.514 µM·h
same,AUC(0-t),"[6]; female, SD, iv, rat whole blood, single i.v. 8 mg/kg, two-chamber model, read-out: AUC0-24h (converted)",0.509 µM·h
same,C0,"[6]; female, SD, iv, rat whole blood, single i.v. 8 mg/kg, two-chamber model, read-out: C0 (initial concentration)",4.06 µM
same,half-life,"[6]; female, SD, iv, rat whole blood, single i.v. 8 mg/kg, two-chamber model, read-out: t1/2 alpha (distribution half-life)",3.55 min
same,half-life,"[6]; female, SD, iv, rat whole blood, single i.v. 8 mg/kg, two-chamber model, read-out: t1/2 beta (elimination half-life)",22.8 min
same,ATA concentration in plasma,"[6]; rat plasma, i.v. 8 mg/kg, both forms",too low to be detected after 15 min
same,time until the blood concentration of ATA was reduced to 0.5 μM,"[6]; rat whole blood, i.v. 8 mg/kg",12 min
same,decline of blood ATA concentration,"[6]; rat whole blood, i.v. 8 mg/kg, 240-min test","declined rapidly, and reached a very low level after 30 min"
same,AUMC (area under the first moment curve),[6]; [7],490.97 μM·min^2
same,Vss (steady state volume of distribution),[6]; [7],4.12 mg/kg/µM
same,CL2 (clearance between central and peripheral compartment),[6]; [8],0.10 (mg/kg)/μM/min
same,CL (clearance),[6]; [8],0.26 (mg/kg)/μM/min
same,V2 (compartment volume of distribution),[6]; [8],2.15 (mg/kg)/μM
same,V (apparent volume of distribution),[6]; [8],1.97 (mg/kg)/μM
same,k10 (elimination rate),[6]; [8],0.13 min⁻¹
same,k12 (inter-compartment rate),[6]; [8],0.05 min⁻¹
same,k21 (intra-compartment rate),[6]; [8],0.05 min⁻¹
same,Deformity and mortality rate (%) (total),"zebrafish embryos; 2.5 μM, 96 hpf",40%
same,Mortality rate (%),"zebrafish embryos; 5 μM, 96 hpf",70%
same,Mortality rate (%),"zebrafish embryos; 10 μM, 96 hpf",100%
same,Mortality rate (%),"zebrafish embryos; 20 μM, 96 hpf",100%
same,dosages that caused deformity or mortality in zebrafish larvae,zebrafish embryos; 96 hpf,higher than 1 μM
same,Deformity rate (%),"zebrafish embryos; zebrafish, in vivo",20%
same,growth inhibition of ER+ breast cancer cells,ER+ breast cancer cells,stronger growth inhibition of ER+ breast cancer cells than tamoxifen
"C[C@]12CC[C@@H]3c4ccc(O)cc4C[C@@H](CCCCCCCCC[S+]([O-])CCCC(F)(F)C(F)(F)F)[C@H]3[C@@H]1CC[C@@H]2O (some centres unmarked) [fulvestrant, reference compound]",effect on ER protein,ER [2],only reduced the protein level
